Results taken from patent US20180002288A1, “USE OF PICOLINAMIDES AS FUNGICIDES” (DOW AGROSCIENCES LLC, priority 2014, published 2018).

Legend:
Assay type in all cases: in vivo
Rhyncosporium secalis = assay: Barley Scald fungicidal activity (RHYNSE); conditions: Hordeum vulgare, 24 h, high volume, 1 Day Protectant, read-out: RHYNSE % Control rating
Protocol: All fungicides were evaluated using the aforementioned method for their activity vs. all target diseases, unless stated otherwise. Wheat leaf blotch and brown rust activity were also evaluated using track spray applications, in which case the fungicides were formulated as EC formulations, containing 0.1% Trycol 5941 in the spray solutions. Wheat plants (variety Yuma) were grown from seed in a greenhouse in 50% mineral soil/50% soil-less Metro mix until the first leaf was fully emerged, with 7-10 seedlings per pot. These plants were inoculated with an aqueous spore suspension of Zymoseptoria tritici either prior to or after fungicide treatments. After inoculation the plants were kept in 100% relative humidity (one day in a dark dew chamber followed by two to three days in a lighted dew chamber at 20° C.) to permit spores to germinate and infect the leaf. The plants were then transferred to a greenhouse set at 20° C. for disease to develop. When disease symptoms were fully expressed on the 1st leaves of untreated plants, infection levels were assessed on a scale of 0 to 100 percent disease severity. Percent disease control was calculated using the ratio of disease severity on treated plants relative to untreated plants. Barley seedlings (variety Harrington) were propagated in soil-less Metro mix, with each pot having 8 to 12 plants, and used in the test when first leaf was fully emerged. Test plants were inoculated by an aqueous spore suspension of Rhyncosporium secalis 24 hr after fungicide treatments. After inoculation the plants were kept in a dew room at 22° C. with 100% relative humidity for 48 hr. The plants were then transferred to a greenhouse set at 20° C. for disease to develop. Fungicide formulation, application and disease assessment on the sprayed leaves followed the procedures as described in the Example A.

Alternaria solani = assay: Tomato Early Blight fungicidal activity (ALTESO); conditions: 24 h, high volume, 1 Day Protectant, read-out: ALTESO % Control rating
Protocol: All fungicides were evaluated using the aforementioned method for their activity vs. all target diseases, unless stated otherwise. Wheat leaf blotch and brown rust activity were also evaluated using track spray applications, in which case the fungicides were formulated as EC formulations, containing 0.1% Trycol 5941 in the spray solutions. Wheat plants (variety Yuma) were grown from seed in a greenhouse in 50% mineral soil/50% soil-less Metro mix until the first leaf was fully emerged, with 7-10 seedlings per pot. These plants were inoculated with an aqueous spore suspension of Zymoseptoria tritici either prior to or after fungicide treatments. After inoculation the plants were kept in 100% relative humidity (one day in a dark dew chamber followed by two to three days in a lighted dew chamber at 20° C.) to permit spores to germinate and infect the leaf. The plants were then transferred to a greenhouse set at 20° C. for disease to develop. When disease symptoms were fully expressed on the 1st leaves of untreated plants, infection levels were assessed on a scale of 0 to 100 percent disease severity. Percent disease control was calculated using the ratio of disease severity on treated plants relative to untreated plants. Tomato plants (variety Outdoor Girl) were propagated in soil-less Metro mix, with each pot having one plant, and used when 12 to 14 days old. Test plants were inoculated with an aqueous spore suspension of Alternaria solani 24 hr after fungicide treatments. After inoculation the plants were kept in a dew room at 22° C. with 100% relative humidity for 48 hr to permit spores to germinate and infect the leaf. The plants were then transferred to a growth room at 22° C. for disease to develop. Fungicide formulation, application and disease assessment on the sprayed leaves followed the procedures as described in the Example A.

Pyricularia oryzae = assay: whole plant or invertebrate; conditions: 24 h, read-out: PYRIOR % Control rating
[1] = system: Colletotrichum lagenarium; assay: Cucumber Anthracnose fungicidal activity (COLLLA); conditions: Colletotrichum orbiculare, 24 h, high volume, 1 Day Protectant, read-out: COLLLA % Control rating
Protocol: All fungicides were evaluated using the aforementioned method for their activity vs. all target diseases, unless stated otherwise. Wheat leaf blotch and brown rust activity were also evaluated using track spray applications, in which case the fungicides were formulated as EC formulations, containing 0.1% Trycol 5941 in the spray solutions. Wheat plants (variety Yuma) were grown from seed in a greenhouse in 50% mineral soil/50% soil-less Metro mix until the first leaf was fully emerged, with 7-10 seedlings per pot. These plants were inoculated with an aqueous spore suspension of Zymoseptoria tritici either prior to or after fungicide treatments. After inoculation the plants were kept in 100% relative humidity (one day in a dark dew chamber followed by two to three days in a lighted dew chamber at 20° C.) to permit spores to germinate and infect the leaf. The plants were then transferred to a greenhouse set at 20° C. for disease to develop. When disease symptoms were fully expressed on the 1st leaves of untreated plants, infection levels were assessed on a scale of 0 to 100 percent disease severity. Percent disease control was calculated using the ratio of disease severity on treated plants relative to untreated plants. Cucumber seedlings (variety Bush Pickle) were propagated in soil-less Metro mix, with each pot having one plant, and used in the test when 12 to 14 days old. Test plants were inoculated with an aqueous spore suspension of Colletotrichum lagenarium 24 hr after fungicide treatments. After inoculation the plants were kept in a dew room at 22° C. with 100% relative humidity for 48 hr to permit spores to germinate and infect the leaf. The plants were then transferred to a growth room set at 22° C. for disease to develop. Fungicide formulation, application and disease assessment on the sprayed leaves followed the procedures as described in the Example A.

Venturia inaequalis = assay: Apple Scab fungicidal activity (VENTIN); conditions: 24 h, high volume, 1 Day Protectant, read-out: VENTIN % Control rating
Protocol: All fungicides were evaluated using the aforementioned method for their activity vs. all target diseases, unless stated otherwise. Wheat leaf blotch and brown rust activity were also evaluated using track spray applications, in which case the fungicides were formulated as EC formulations, containing 0.1% Trycol 5941 in the spray solutions. Wheat plants (variety Yuma) were grown from seed in a greenhouse in 50% mineral soil/50% soil-less Metro mix until the first leaf was fully emerged, with 7-10 seedlings per pot. These plants were inoculated with an aqueous spore suspension of Zymoseptoria tritici either prior to or after fungicide treatments. After inoculation the plants were kept in 100% relative humidity (one day in a dark dew chamber followed by two to three days in a lighted dew chamber at 20° C.) to permit spores to germinate and infect the leaf. The plants were then transferred to a greenhouse set at 20° C. for disease to develop. When disease symptoms were fully expressed on the 1st leaves of untreated plants, infection levels were assessed on a scale of 0 to 100 percent disease severity. Percent disease control was calculated using the ratio of disease severity on treated plants relative to untreated plants. […] Seedlings with two expanding young leaves at the top (older leaves at bottom of the plants were trimmed) were used in the test. Plants were inoculated with a spore suspension of Venturia inaequalis 24 hr after fungicide treatment and kept in a 22° C. dew chamber with 100% relative humidity for 48 hr, and then moved to a greenhouse set at 20° C. for disease to develop. Fungicide formulation, application and disease assessment on the sprayed leaves followed the procedures as described in the Example A.

| Compound | pest or weed control at 100 ppm (Rhyncosporium secalis) | pest or weed control at 100 ppm (Alternaria solani) | pest or weed control at 100 ppm (Pyricularia oryzae) | pest or weed control at 100 ppm [1] | pest or weed control at 100 ppm (Venturia inaequalis) |
| --- | --- | --- | --- | --- | --- |
| COc1ccnc(C(=O)N[C@@H](C)C(=O)O[C@@H](C)[C@H](Oc2ccccc2)c2ccc(F)cc2F)c1OCOC(C)=O [Example 250] | < 80% | < 0% | < 80% | > 80% |  |
| COc1ccnc(C(=O)N[C@@H](C)C(=O)O[C@@H](C)[C@H](Oc2ccccc2)c2ccc3ccccc3c2)c1OCOC(C)=O [Example 263] | > 80% | < 0% | > 80% | > 80% | < 80% |
| COc1ccnc(C(=O)N[C@@H](C)C(=O)O[C@@H](C)[C@H](Oc2cc(F)cc(Cl)c2)c2ccccc2)c1OC(C)=O [Example 207] | > 80% | < 0% | > 80% | > 80% | > 80% |
| COc1ccnc(C(=O)N[C@@H](C)C(=O)O[C@@H](C)[C@H](Oc2cccc(Cl)c2)c2ccccc2)c1OCOC(C)=O [Example 202] | < 0% | < 0% | < 80% | < 80% |  |
| COc1ccnc(C(=O)N[C@@H](C)C(=O)O[C@@H](C)[C@H](Oc2ccccc2)c2ccccc2)c1OCOC(C)=O [Example 183] | > 80% | < 80% | > 80% | > 80% | < 80% |
| COc1ccnc(C(=O)N[C@@H](C)C(=O)O[C@@H](C)[C@H](Oc2ccccc2)c2ccc(F)cc2C)c1OCOC(C)=O [Example 259] | > 80% | < 0% | > 80% | > 80% | < 80% |
| COc1ccnc(C(=O)N[C@@H](C)C(=O)O[C@@H](C)[C@H](Oc2ccccc2Cl)c2ccccc2)c1OC(C)=O [Example 205] | < 80% | < 80% | > 80% | > 80% |  |
| COc1ccnc(C(=O)N[C@@H](C)C(=O)O[C@@H](C)[C@H](Oc2ccccc2)c2ccc(C)cc2)c1OCOC(C)=O [Example 252] | > 80% | < 0% | > 80% | > 80% | < 80% |
| COc1ccnc(C(=O)N[C@@H](C)C(=O)O[C@@H](C)[C@H](Oc2cccc(F)c2)c2ccccc2)c1OCOC(C)=O [Example 187] | > 80% | < 80% | > 80% | > 80% |  |
| COc1ccnc(C(=O)N[C@@H](C)C(=O)O[C@@H](C)[C@H](Oc2ccccc2)c2ccc(F)cc2Cl)c1OCOC(C)=O [Example 260] | > 80% | < 0% | > 80% | > 80% | < 80% |
| COc1cc(F)ccc1[C@@H](Oc1ccccc1)[C@H](C)OC(=O)[C@H](C)NC(=O)c1nccc(OC)c1OCOC(C)=O [Example 256] | > 80% | < 80% | > 80% | > 80% |  |
| COc1ccnc(C(=O)N[C@@H](C)C(=O)O[C@@H](C)C(Oc2ccc(F)cc2)c2ccccc2)c1OC(C)=O (stereo partly drawn) [Example 236] | > 80% | < 80% | > 80% | < 80% | > 80% |
| COc1ccccc1[C@@H](Oc1ccccc1)[C@H](C)OC(=O)[C@H](C)NC(=O)c1nccc(OC)c1OCOC(C)=O [Example 255] | < 80% | < 0% | > 80% | > 80% | < 80% |
| COc1ccnc(C(=O)N[C@@H](C)C(=O)O[C@@H](C)[C@H](Oc2ccc(F)cc2)c2ccccc2)c1OCOC(C)=O [Example 237] | > 80% | < 80% | > 80% | < 80% | < 80% |
| COc1ccnc(C(=O)N[C@@H](C)C(=O)O[C@@H](C)[C@H](Oc2ccc(F)cc2)c2ccccc2)c1OC(C)=O [Example 235] | > 80% | < 80% | > 80% | > 80% | < 80% |
| COc1ccnc(C(=O)N[C@@H](C)C(=O)O[C@@H](C)C(Oc2ccc(F)cc2)c2ccc(F)cc2)c1OCOC(C)=O (stereo partly drawn) [Example 238] | > 80% | > 80% | > 80% | < 80% | > 80% |
